ChEMBL document CHEMBL5380794, “Discovery of a Potent and Selective STAT5 PROTAC Degrader with Strong Antitumor Activity In Vivo in Acute Myeloid Leukemia” (J Med Chem, 2023)
Calls of active or inactive are those of the source. The rule behind the calls is not given here.

How the values were obtained:
[1] = target: T1, Signal transducer and activator of transcription 5A (Homo sapiens, UniProt P42229); assay: Induction of STAT5 degradation in human SKNO-1 cells measured for 18 hrs by Western blot analysis; type: cell-based
T1 sequence (P42229 whole entry): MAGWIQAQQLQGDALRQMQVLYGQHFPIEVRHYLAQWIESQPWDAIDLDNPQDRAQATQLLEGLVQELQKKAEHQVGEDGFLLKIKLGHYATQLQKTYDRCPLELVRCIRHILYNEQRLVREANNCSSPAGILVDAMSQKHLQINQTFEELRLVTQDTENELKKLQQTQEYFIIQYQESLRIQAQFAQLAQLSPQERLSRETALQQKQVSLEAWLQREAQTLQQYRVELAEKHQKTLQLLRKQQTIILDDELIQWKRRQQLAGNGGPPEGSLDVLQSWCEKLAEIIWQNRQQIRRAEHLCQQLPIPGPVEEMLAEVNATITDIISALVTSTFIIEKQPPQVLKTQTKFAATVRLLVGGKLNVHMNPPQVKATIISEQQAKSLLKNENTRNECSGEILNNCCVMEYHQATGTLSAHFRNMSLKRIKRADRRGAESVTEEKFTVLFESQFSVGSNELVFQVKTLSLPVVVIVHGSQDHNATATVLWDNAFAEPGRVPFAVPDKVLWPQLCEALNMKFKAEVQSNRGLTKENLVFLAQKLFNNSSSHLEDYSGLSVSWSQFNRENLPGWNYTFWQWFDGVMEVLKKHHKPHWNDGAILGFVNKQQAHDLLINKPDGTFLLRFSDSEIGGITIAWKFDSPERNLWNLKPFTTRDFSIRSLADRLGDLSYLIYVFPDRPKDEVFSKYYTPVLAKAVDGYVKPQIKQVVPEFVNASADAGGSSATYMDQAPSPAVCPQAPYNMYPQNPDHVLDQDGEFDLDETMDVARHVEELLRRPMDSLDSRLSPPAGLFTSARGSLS

[2] = target: T2, Signal transducer and activator of transcription 6 (Homo sapiens, UniProt P42226); assay: Induction of STAT6 degradation in human SKNO-1 cells measured for 18 hrs by Western blot analysis; type: cell-based; settings: read-out: DC50
T2 sequence (P42226 whole entry): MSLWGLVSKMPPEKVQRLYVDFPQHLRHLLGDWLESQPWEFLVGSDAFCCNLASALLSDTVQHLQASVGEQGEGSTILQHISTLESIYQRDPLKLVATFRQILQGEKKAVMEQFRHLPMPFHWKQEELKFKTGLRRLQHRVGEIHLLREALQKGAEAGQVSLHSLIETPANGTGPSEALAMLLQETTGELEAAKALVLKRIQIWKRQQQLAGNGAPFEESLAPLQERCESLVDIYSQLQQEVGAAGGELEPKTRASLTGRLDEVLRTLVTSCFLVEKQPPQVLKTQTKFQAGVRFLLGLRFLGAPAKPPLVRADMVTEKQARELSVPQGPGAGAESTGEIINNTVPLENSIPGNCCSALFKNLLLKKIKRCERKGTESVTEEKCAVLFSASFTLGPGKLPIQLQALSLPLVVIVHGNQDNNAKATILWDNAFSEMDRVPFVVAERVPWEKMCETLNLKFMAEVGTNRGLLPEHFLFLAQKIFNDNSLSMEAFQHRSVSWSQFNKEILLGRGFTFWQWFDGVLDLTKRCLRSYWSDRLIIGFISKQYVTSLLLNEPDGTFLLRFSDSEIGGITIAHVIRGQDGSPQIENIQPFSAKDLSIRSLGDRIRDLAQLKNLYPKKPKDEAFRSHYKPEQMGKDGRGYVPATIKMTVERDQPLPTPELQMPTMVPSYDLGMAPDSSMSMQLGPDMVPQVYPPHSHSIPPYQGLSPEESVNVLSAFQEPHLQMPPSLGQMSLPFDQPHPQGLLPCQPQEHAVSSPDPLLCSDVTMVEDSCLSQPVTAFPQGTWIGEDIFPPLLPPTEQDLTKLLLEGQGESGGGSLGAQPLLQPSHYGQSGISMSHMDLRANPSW

[3] = target: T3, Signal transducer and activator of transcription 5A (Homo sapiens) (UniProt P42229); assay: Induction of STAT5 degradation in human SKNO-1 cells assessed as maximal degradation at 0.05 to 5 uM measured for 18 hrs by Western blot analysis relative to control; type: cell-based; settings: dose 0.05-5 µM
T3 sequence (whole entry): T1 sequence (P42229 whole entry)

Homo sapiens = species on record: Homo sapiens; assay: Selectivity ratio of DC50 for induction of STAT5 degradation in human SKNO-1 cells to DC50 for STAT6 degradation in human SKNO-1 cells; type: cell-based
[4] = target: T1, Signal transducer and activator of transcription 5A; assay: Binding affinity to N-terminal 6his-tagged human STAT5A (136 to 705 residues) expressed in Escherichia coli BL21-DE3 rosetta cells assessed as inhibition constant by FP assay
[5] = target: T4, Signal transducer and activator of transcription 5B (Homo sapiens, UniProt P51692); assay: Binding affinity to STAT5B (unknown origin) assessed as inhibition constant by FP assay
T4 sequence (P51692 whole entry): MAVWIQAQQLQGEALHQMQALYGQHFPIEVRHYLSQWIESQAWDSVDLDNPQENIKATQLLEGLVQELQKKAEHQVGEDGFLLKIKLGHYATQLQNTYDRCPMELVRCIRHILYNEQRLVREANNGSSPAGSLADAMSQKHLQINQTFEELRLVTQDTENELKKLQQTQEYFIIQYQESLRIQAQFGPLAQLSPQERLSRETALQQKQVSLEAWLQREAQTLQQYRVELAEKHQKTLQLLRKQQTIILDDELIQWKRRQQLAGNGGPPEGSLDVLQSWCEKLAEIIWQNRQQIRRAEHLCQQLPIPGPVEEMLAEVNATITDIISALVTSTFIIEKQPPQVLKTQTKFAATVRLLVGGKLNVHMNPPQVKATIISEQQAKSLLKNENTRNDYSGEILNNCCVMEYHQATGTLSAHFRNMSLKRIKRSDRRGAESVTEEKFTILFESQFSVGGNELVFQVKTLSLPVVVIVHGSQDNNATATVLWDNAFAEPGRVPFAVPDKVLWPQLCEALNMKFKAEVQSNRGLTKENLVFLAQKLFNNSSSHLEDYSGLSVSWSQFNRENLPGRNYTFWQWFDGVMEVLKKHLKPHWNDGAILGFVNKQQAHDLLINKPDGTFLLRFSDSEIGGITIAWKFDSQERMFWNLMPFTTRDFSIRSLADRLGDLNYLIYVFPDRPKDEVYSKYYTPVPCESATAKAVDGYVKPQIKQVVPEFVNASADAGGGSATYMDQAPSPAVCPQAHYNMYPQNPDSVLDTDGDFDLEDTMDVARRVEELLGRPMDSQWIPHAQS

SKNO-1 [6] = assay: Effect on STAT1 level in human SKNO-1 cells upto 5 uM measured for 18 hrs by Western blot analysis; type: functional, cell-based
SKNO-1 [7] = assay: Effect on STAT2 level in human SKNO-1 cells upto 5 uM measured for 18 hrs by Western blot analysis; type: functional, cell-based
SKNO-1 [8] = assay: Effect on STAT3 level in human SKNO-1 cells upto 5 uM measured for 18 hrs by Western blot analysis; type: functional, cell-based
SKNO-1 [9] = assay: Effect on STAT4 level in human SKNO-1 cells upto 5 uM measured for 18 hrs by Western blot analysis; type: functional, cell-based
SKNO-1 [10] = assay: Effect on STAT6 level in human SKNO-1 cells upto 5 uM measured for 18 hrs by Western blot analysis; type: functional, cell-based
[11] = target: T3, Signal transducer and activator of transcription 5A (Homo sapiens); assay: Inhibition of STAT5 phosphorylation in human MV4-11 cells assessed as reduction in […] phosphorylation at Y694 residue at 0.2 uM measured for 6 hrs by Western blot analysis; type: cell-based
[12] = target: T3, Signal transducer and activator of transcription 5A (Homo sapiens); assay: Inhibition of STAT5 phosphorylation in human MV4-11 cells assessed as reduction in STAT5 level at 1 uM measured for 6 hrs by Western blot analysis; type: cell-based
MV4-11 [13] = assay: Effect on STAT1 level in human MV4-11 cells upto 5 uM measured for 18 hrs by Western blot analysis; type: functional, cell-based
MV4-11 [14] = assay: Effect on STAT2 level in human MV4-11 cells upto 5 uM measured for 18 hrs by Western blot analysis; type: functional, cell-based
MV4-11 [15] = assay: Effect on STAT3 level in human MV4-11 cells upto 5 uM measured for 18 hrs by Western blot analysis; type: functional, cell-based
MV4-11 [16] = assay: Effect on STAT6 level in human MV4-11 cells upto 5 uM measured for 18 hrs by Western blot analysis; type: functional, cell-based
Protein cereblon = Protein cereblon (Homo sapiens, UniProt Q96SW2); assay: Binding affinity to GST-tagged wild type human CRBN assessed as inhibition constant by TR-FRET assay
Protein cereblon, sequence (Q96SW2 whole entry): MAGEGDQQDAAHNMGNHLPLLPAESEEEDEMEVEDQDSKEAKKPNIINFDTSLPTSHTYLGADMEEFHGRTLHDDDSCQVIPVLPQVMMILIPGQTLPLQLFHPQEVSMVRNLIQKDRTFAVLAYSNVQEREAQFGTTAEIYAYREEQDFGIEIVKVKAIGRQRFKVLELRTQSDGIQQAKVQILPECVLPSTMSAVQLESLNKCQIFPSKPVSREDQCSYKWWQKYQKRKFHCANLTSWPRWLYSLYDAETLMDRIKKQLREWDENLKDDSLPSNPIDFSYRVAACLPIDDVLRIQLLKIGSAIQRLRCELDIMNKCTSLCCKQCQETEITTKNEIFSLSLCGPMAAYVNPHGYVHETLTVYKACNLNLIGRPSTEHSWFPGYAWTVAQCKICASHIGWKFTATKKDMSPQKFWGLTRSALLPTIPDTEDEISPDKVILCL

| DC50 [1] [nM] | DC50 [2] [nM] | Emax [3] [%] | Ki [4] [nM] | Ki [5] [nM] | inhibition [11] | inhibition [12] | Ki (Protein cereblon) [nM] | Structure (SMILES) | Ratio (Homo sapiens) | Activity (SKNO-1 [6]) | Activity (SKNO-1 [7]) | Activity (SKNO-1 [8]) | Activity (SKNO-1 [9]) | Activity (SKNO-1 [10]) | Activity (MV4-11 [13]) | Activity (MV4-11 [14]) | Activity (MV4-11 [15]) | Activity (MV4-11 [16]) |
| --- | --- | --- | --- | --- | --- | --- | --- | --- | --- | --- | --- | --- | --- | --- | --- | --- | --- | --- |
| 230 | > 5000 | > 95 |  |  |  |  |  | CC(C)(C)[C@H](NC(=O)c1cc2cc(C(F)(F)P(=O)(O)O)ccc2s1)C(=O)N1CCC[C@H]1C(=O)N(CCC(=O)NCCCC#Cc1cccc2c1CN(C1CCC(=O)NC1=O)C2=O)c1ccc(Br)cc1 (some centres undefined) | > 20 |  |  |  |  |  |  |  |  |  |
|  |  |  | 1000 | 1000 | inactive | inactive |  | CN(C)C(=O)CCN(C(=O)[C@@H]1CCCN1C(=O)[C@@H](NC(=O)c1cc2cc(C(F)(F)P(=O)(O)O)ccc2s1)C(C)(C)C)c1ccc(-c2nccs2)cc1 |  | inactive | inactive | inactive | inactive | inactive | inactive | inactive | inactive | inactive |
|  |  |  |  |  | inactive | inactive | > 5000 | CN(CCCC#Cc1cccc2c1CN(C1CCC(=O)N(C)C1=O)C2=O)C(=O)CCN(C(=O)[C@@H]1CCCN1C(=O)[C@@H](NC(=O)c1cc2cc(C(F)(F)P(=O)(O)O)ccc2s1)C(C)(C)C)c1ccc(-c2nccs2)cc1 (some centres undefined) |  | inactive | inactive | inactive | inactive | inactive | inactive | inactive | inactive | inactive |
